For this series, the system named is human maximum recommended daily dose, FDA database. Put plainly: DSSTox (FDAMDD) FDA Maximum (Recommended) Daily Dose Database. As to conditions: hits give low values. In short, it runs like this:
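MRDD values come from clinical trials with daily oral dosing, usually for 3–12 months, for the average adult, in mg/day converted to mg/kg-bw/day assuming 60 kg. Antineoplastic mg/m2 doses are divided by 37. Activity score maps log10(1/MRDD mmol) onto 1–100.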

[1] abbreviates: TherapeuticCategory: antibacterial.
Where [2] appears, read: TherapeuticCategory: sedative, hypnotic.
Where [3] appears, read: TherapeuticCategory: anthelmintic.
Where [4] appears, read: TherapeuticCategory: vasodilator.
The mark [5] stands for this setting: TherapeuticCategory: antineoplastic.
Where [6] appears, read: TherapeuticCategory: antipsychotic.
The mark [7] stands for this setting: TherapeuticCategory: antihypertensive.
[8] abbreviates: TherapeuticCategory: narcotic analgesic.

Molecules are shown by their SMILES.

With `NC(N)=NCCCC(N)C(=O)O` (configuration not stated), the maximum recommended daily dose (mmol/kg-bw/day) (TherapeuticCategory: ammonia detoxicant, diagnostic aid) was 2.87.
For the compound `CN(C)C(=O)Oc1ccc[n+](C)c1`, the maximum recommended daily dose (mmol/kg-bw/day) (TherapeuticCategory: cholinergic) is 0.0766.
For the compound `CN(C)C(=O)CCCOC(=O)C(C)(C)Oc1ccc(Cl)cc1`, for the setting “TherapeuticCategory: antihyperlipoproteinemic”, the maximum recommended daily dose (mmol/kg-bw/day) was 0.137.
For the compound `CO[C@@H]1[C@@H](OC(N)=O)[C@@H](O)[C@H](Oc2ccc3c(O)c(NC(=O)c4ccc(O)c(CC=C(C)C)c4)c(=O)oc3c2C)OC1(C)C`, the maximum recommended daily dose (mmol/kg-bw/day) under setting [1] was 0.0394.
With `CCOC(=O)c1c(N)sc2c1CCN(Cc1ccccc1)C2`, for the setting “TherapeuticCategory: analgesic, antipyretic, anti inflammatory”, the maximum recommended daily dose (mmol/kg-bw/day) was 0.0158.
Turning to `NC(N)=NS(=O)(=O)c1ccc(N)cc1`, the maximum recommended daily dose (mmol/kg-bw/day) under setting [1] is 0.0934.
For the compound `CN1C(=O)C(O)N=C(c2ccccc2)c2cc(Cl)ccc21` (configuration not stated), the maximum recommended daily dose (mmol/kg-bw/day) under setting [2] was 0.000831.
On the same count and under the same terms, as for `CCCC(C)C1(CC)C(=O)NC(=O)NC1=O` (configuration not stated), the figure is 0.0147.
`CC[C@H](C)[C@H]1O[C@]2(CC[C@@H]1C)C[C@@H]1C[C@@H](C/C=C(\C)[C@@H](O[C@H]3C[C@H](OC)[C@@H](O[C@H]4C[C@H](OC)[C@@H](O)[C@H](C)O4)[C@H](C)O3)[C@@H](C)/C=C/C=C3\CO[C@@H]4[C@H](O)C(C)=C[C@@H](C(=O)O1)[C@]34O)O2`: the maximum recommended daily dose (mmol/kg-bw/day) under setting [3] was 0.000171.
On to `CN(C)[C@@H]1C(=O)C(C(=O)NCN2CCCC2)=C(O)[C@@]2(O)C(=O)C3=C(O)c4c(O)cccc4[C@@](C)(O)C3C[C@@H]12` (some centres not stated), for which the maximum recommended daily dose (mmol/kg-bw/day) under setting [1] is 0.0111.
In the case of `CC(CCc1ccccc1)NC(C)C(O)c1ccc(O)cc1` (configuration not stated), the maximum recommended daily dose (mmol/kg-bw/day) under setting [4] was 0.00267.
On to `O=NN(CCCl)C(=O)NCCCl`, for which the maximum recommended daily dose (mmol/kg-bw/day) under setting [5] was 0.000389.
On to `C[C@@H](N)[C@@H](O)c1ccccc1`, for which the maximum recommended daily dose (mmol/kg-bw/day) (TherapeuticCategory: decongestant, anorexic) is 0.0198.
For the compound `O=C(CCCN1CCC(n2c(=S)[nH]c3ccccc32)CC1)c1ccc(F)cc1`, the maximum recommended daily dose (mmol/kg-bw/day) under setting [6] was 0.000503.
As for `CCOC(=O)c1ncn2c1CN(C)C(=O)c1cc(F)ccc1-2`, for the setting “TherapeuticCategory: benzodiazepine antagonist”, the maximum recommended daily dose (mmol/kg-bw/day) was 0.000165.
In the case of `CCN(CC)CCOc1ccc(/C(=C(\Cl)c2ccccc2)c2ccccc2)cc1`, the maximum recommended daily dose (mmol/kg-bw/day) (TherapeuticCategory: gonad stimulating) was 0.00411.
Consider `C1CCC(C(CC2CCCCN2)C2CCCCC2)CC1` (configuration not stated), for which, where the note is “TherapeuticCategory: vasodilator, Ca channel blocker, diuretic”, the maximum recommended daily dose (mmol/kg-bw/day) is 0.018.
`O=S(O)CNc1ccc(S(=O)(=O)c2ccc(NCS(=O)O)cc2)cc1`: the maximum recommended daily dose (mmol/kg-bw/day) under setting [1] is 0.0111.
As to `COc1cc(NS(=O)(=O)c2ccc(N)cc2)nc(OC)n1`, under setting [1], the maximum recommended daily dose (mmol/kg-bw/day) was 0.107.
`CCN(CC)CCNC(=O)c1cc(S(C)(=O)=O)ccc1OC`: the maximum recommended daily dose (mmol/kg-bw/day) (TherapeuticCategory: antidyskinetic) is 0.0203.
For the compound `CC(C)N=C(N)/N=C(\N)Nc1ccc(Cl)cc1`, the maximum recommended daily dose (mmol/kg-bw/day) (TherapeuticCategory: antimalarial) was 0.0131.
In the case of `CCCSc1ccc2nc(NC(=O)OC)[nH]c2c1`, the maximum recommended daily dose (mmol/kg-bw/day) under setting [3] is 0.0501.
For the compound `CN1C(CCl)Nc2cc(Cl)c(S(N)(=O)=O)cc2S1(=O)=O` (configuration not stated), the maximum recommended daily dose (mmol/kg-bw/day) (TherapeuticCategory: diuretic, antihypertensive) was 0.000464.
For the compound `C=C1CC[C@@]2(O)[C@H]3Cc4ccc(O)c5c4[C@@]2(CCN3CC2CC2)[C@H]1O5`, the maximum recommended daily dose (mmol/kg-bw/day) (TherapeuticCategory: narcotic antagonist) was 0.00245.
For the compound `OCC1COC(CCI)O1` (configuration not stated), the maximum recommended daily dose (mmol/kg-bw/day) (TherapeuticCategory: expectorant) is 0.0155.
Consider `CN1C(=O)CN=C(c2ccccc2F)c2cc([N+](=O)[O-])ccc21`, for which, under “TherapeuticCategory: hypnotic”, the maximum recommended daily dose (mmol/kg-bw/day) was 0.000106.
As to `CC(=O)OC(C)C[N+](C)(C)C` (configuration not stated), the maximum recommended daily dose (mmol/kg-bw/day) (TherapeuticCategory: cholinergic, diagnostic aid) is 0.00213.
On to `C[C@@H](Cc1ccccc1)N(C)Cc1ccccc1`, for which the maximum recommended daily dose (mmol/kg-bw/day) (TherapeuticCategory: anorexic) was 0.0104.
On to `CC(N)Cc1ccc(O)cc1` (configuration not stated), for which the maximum recommended daily dose (mmol/kg-bw/day) (TherapeuticCategory: adrenergic, mydriatic) was 0.0265.
Turning to `C[C@H](CCC(=O)O)[C@H]1CC[C@H]2[C@@H]3[C@@H](O)C[C@@H]4C[C@H](O)CC[C@]4(C)[C@H]3CC[C@]12C`, the maximum recommended daily dose (mmol/kg-bw/day) (TherapeuticCategory: anticholelithogenic) is 0.0255.
Regarding `CC(C)(C)NCC(O)COc1cccc2c1C[C@H](O)[C@H](O)C2` (some centres not stated), the maximum recommended daily dose (mmol/kg-bw/day) (TherapeuticCategory: antihypertensive, antianginal) was 0.0346.
For `C[C@H]1CC[C@@H]2N(C1)C[C@@H]1[C@H]([C@@H](O)[C@H](O)[C@]3(O)[C@H]1C[C@@]14O[C@@]5(O)[C@@H]([C@@H](O)[C@@H](O)[C@@H]31)[C@]4(C)CC[C@@H]5O)[C@]2(C)O`, the maximum recommended daily dose (mmol/kg-bw/day) (TherapeuticCategory: none) is 4.76e-05.
With `CO/N=C(\C(=O)N[C@@H]1C(=O)N2C(C(=O)O)=C(CSc3nc(=O)c(=O)[nH]n3C)CS[C@H]12)c1csc(N)n1`, the maximum recommended daily dose (mmol/kg-bw/day) under setting [1] was 0.12.
Regarding `CC1=NS(=O)(=O)c2cc(Cl)ccc2N1`, the maximum recommended daily dose (mmol/kg-bw/day) under setting [7] was 0.0347.
Consider `C[N+]12CCC(CC1)C(OC(=O)C(O)(c1ccccc1)c1ccccc1)C2` (configuration not stated), for which, under “TherapeuticCategory: anticholinergic”, the maximum recommended daily dose (mmol/kg-bw/day) was 0.00077.
Consider `CCCCc1ccc(C(=O)O)nc1`, for which the maximum recommended daily dose (mmol/kg-bw/day) (TherapeuticCategory: none) was 0.0418.
For `c1ccc([C@H]2CN3CCSC3=N2)cc1`, the maximum recommended daily dose (mmol/kg-bw/day) under setting [3] was 0.00408.
Regarding `C[C@]12CC[C@H]3[C@@H](CC=C4C[C@@H](O)CC[C@@]43C)[C@@H]1CC[C@@H]2O`, the maximum recommended daily dose (mmol/kg-bw/day) (TherapeuticCategory: anabolic) was 0.00861.
Take `CN1CCN(CCCN2c3ccccc3Sc3ccc(Cl)cc32)CC1`: the maximum recommended daily dose (mmol/kg-bw/day) (TherapeuticCategory: antiemetic) was 0.00447.
As for `NC(N)=NCCN1CCCCCCC1`, the maximum recommended daily dose (mmol/kg-bw/day) under setting [7] was 0.0042.
For the compound `CC(=O)[C@]1(O)Cc2c(O)c3c(c(O)c2[C@@H](O[C@H]2C[C@H](N)[C@H](O)[C@H](C)O2)C1)C(=O)c1ccccc1C3=O`, where the note is “TherapeuticCategory: antibacterial, antineoplastic”, the maximum recommended daily dose (mmol/kg-bw/day) is 0.00543.
In the case of `CC(=O)c1ccc2c(c1)N(CCCN(C)C)c1ccccc1S2`, the maximum recommended daily dose (mmol/kg-bw/day) (TherapeuticCategory: tranquilizer) was 0.000459.
As for `CCc1cc2c(s1)-n1c(C)nnc1CN=C2c1ccccc1Cl`, the maximum recommended daily dose (mmol/kg-bw/day) (TherapeuticCategory: anxiolytic) is 0.000195.
As for `OC[C@H]1O[C@](O)(CO)[C@@H](O)[C@@H]1O`, under “TherapeuticCategory: fluid and nutrient replenisher, ferric form as hematinic”, the maximum recommended daily dose (mmol/kg-bw/day) is 2.31.
`NC(=O)OCC(O)COc1ccc(Cl)cc1` (configuration not stated): the maximum recommended daily dose (mmol/kg-bw/day) (TherapeuticCategory: topical antifungal) was 0.163.
With `CN/C(=C\[N+](=O)[O-])NCCSCc1csc(CN(C)C)n1`, for the setting “TherapeuticCategory: antiulcerative”, the maximum recommended daily dose (mmol/kg-bw/day) was 0.0151.
Consider `O=C(OC1C(OC(=O)c2cccnc2)C(OC(=O)c2cccnc2)C(OC(=O)c2cccnc2)C(OC(=O)c2cccnc2)C1OC(=O)c1cccnc1)c1cccnc1` (configuration not stated), for which, under setting [4], the maximum recommended daily dose (mmol/kg-bw/day) was 0.0823.
For `O=P1(N(CCCl)CCCl)NCCCO1` (configuration not stated), the maximum recommended daily dose (mmol/kg-bw/day) under setting [5] is 0.0192.
The same measure, in the same setting: then `Nc1ncn([C@@H]2O[C@H](CO)[C@@H](O)[C@H]2O)c(=O)n1`, with 0.0831.
Take `CN1CC[C@]23c4c5ccc(O)c4O[C@H]2[C@@H](O)C=C[C@H]3[C@H]1C5`: under setting [8], the maximum recommended daily dose (mmol/kg-bw/day) is 0.00585.
On to `OCC(Br)(Br)Br`, for which the maximum recommended daily dose (mmol/kg-bw/day) (TherapeuticCategory: anesthetic) is 0.354.
For `NC1=NC(=O)C(c2ccccc2)O1` (configuration not stated), the maximum recommended daily dose (mmol/kg-bw/day) (TherapeuticCategory: CNS stimulant) is 0.0107.
Consider `COCCOc1cnc(NS(=O)(=O)c2ccccc2)nc1`, for which the maximum recommended daily dose (mmol/kg-bw/day) (TherapeuticCategory: antidiabetic) was 0.108.
For `CCC(OC(C)=O)C(CC(C)N(C)C)(c1ccccc1)c1ccccc1` (configuration not stated), for the setting “TherapeuticCategory: none”, the maximum recommended daily dose (mmol/kg-bw/day) is 0.00659.
`Cc1onc(-c2c(Cl)cccc2Cl)c1C(=O)N[C@@H]1C(=O)N2[C@@H]1SC(C)(C)[C@@H]2C(=O)O`: under setting [1], the maximum recommended daily dose (mmol/kg-bw/day) is 0.0355.
As to `CC(=O)NCCOC(=O)C(Oc1cccc(C(F)(F)F)c1)c1ccc(Cl)cc1` (configuration not stated), the maximum recommended daily dose (mmol/kg-bw/day) (TherapeuticCategory: antihyperlipoproteinemic, uricosuric) is 0.0402.
Regarding `CCN[C@H]1C[C@H](C)S(=O)(=O)c2sc(S(N)(=O)=O)cc21`, the maximum recommended daily dose (mmol/kg-bw/day) (TherapeuticCategory: antiglaucomal agent, carbonic anhydrase inhibitor) is 0.00308.
For the compound `CCC(=O)O[C@]1(c2ccccc2)CCN(C)C[C@@H]1C`, the maximum recommended daily dose (mmol/kg-bw/day) under setting [8] is 0.00191.
On to `C[C@]12CCC(=O)C=C1CC[C@@H]1[C@@H]2[C@@H](O)C[C@]2(C=O)[C@@H](C(=O)CO)CC[C@@H]12`, for which the maximum recommended daily dose (mmol/kg-bw/day) (TherapeuticCategory: mineralcorticoid) is 2.31e-05.
In the case of `CN[C@@H]1[C@H](O[C@H]2[C@H](O[C@H]3[C@H](O)[C@@H](O)[C@H](N=C(N)N)[C@@H](O)[C@@H]3N=C(N)N)O[C@@H](C)[C@]2(O)CO)O[C@@H](CO)[C@H](O)[C@H]1O`, the maximum recommended daily dose (mmol/kg-bw/day) under setting [1] is 0.0286.
For the compound `CCC(Cc1c(I)cc(I)c(N)c1I)C(=O)O` (configuration not stated), the maximum recommended daily dose (mmol/kg-bw/day) (TherapeuticCategory: diagnostic aid) was 0.175.
For `c1ccc2c(c1)Sc1ccccc1N2CC1CN2CCC1CC2` (configuration not stated), the maximum recommended daily dose (mmol/kg-bw/day) (TherapeuticCategory: antihistaminic) is 0.000518.
`CC(=O)OCC1=C(C(=O)O)N2C(=O)[C@@H](NC(=O)CSc3ccncc3)[C@H]2SC1`: the maximum recommended daily dose (mmol/kg-bw/day) under setting [1] was 0.236.
In the case of `NC(=O)CS(=O)C(c1ccccc1)c1ccccc1` (configuration not stated), the maximum recommended daily dose (mmol/kg-bw/day) (TherapeuticCategory: CNS stimulant, adrenergic) was 0.0122.
For `NC(Cc1cc(I)c(Oc2cc(I)c(O)c(I)c2)c(I)c1)C(=O)O` (configuration not stated), where the note is “TherapeuticCategory: thyroid hormone, antihyperlipoproteinemic”, the maximum recommended daily dose (mmol/kg-bw/day) was 6.44e-06.
Take `CC(=O)OCCN1CCN(CCCN2c3ccccc3Sc3ccc(Cl)cc32)CC1`: the maximum recommended daily dose (mmol/kg-bw/day) under setting [6] is 0.00336.
As to `C[C@H]1O[C@@H](n2cc(F)c(=O)[nH]c2=O)[C@H](O)[C@@H]1O`, the maximum recommended daily dose (mmol/kg-bw/day) under setting [5] was 0.0812.

Values taken from PubChem BioAssay AID1195 (EPA DSSTox, 2008).
